Assays:
barnyardgrass [1] = assay: Test C preemergence; type: in vivo, Echinochloa crusgalli; conditions: 0 to 100 scale (0 no effect, 100 complete control); for Plant response rating, Barnyardgrass: Preemergence, 500 g ai/ha, visual rating after 10 days; for Barnyardgrass plant response rating: Test C, preemergence, 125 g ai/ha
Method in brief: (§1)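 Seeds in loam–sand blend received preemergence directed soil spray of test chemicals in non-phytotoxic solvent with surfactant; postemergence treatment was applied at one- to two-leaf stage (2–10 cm). After 10 days in greenhouse, injury rated visually versus untreated controls, 0 (no effect) to 100 (complete control).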

blackgrass [2] = assay: Test C preemergence; type: in vivo, Alopecurus myosuroides; conditions: 0 to 100 scale (0 no effect, 100 complete control); for Plant response rating, Blackgrass: Preemergence, 500 g ai/ha, visual rating after 10 days; for Blackgrass plant response rating: Test C, preemergence, 125 g ai/ha
Method in brief: as §1

corn [3] = assay: Test C preemergence; type: in vivo, Zea mays; conditions: 0 to 100 scale (0 no effect, 100 complete control); for Plant response rating, Corn: Preemergence, 500 g ai/ha, visual rating after 10 days; for Corn plant response rating: Test C, preemergence, 125 g ai/ha
Method in brief: as §1

green foxtail [4] = assay: Test C preemergence; type: in vivo, Setaria viridis; conditions: 0 to 100 scale (0 no effect, 100 complete control); for Plant response rating, Foxtail, Green: Preemergence, 500 g ai/ha, visual rating after 10 days; for Foxtail, Green plant response rating: Test C, preemergence, 125 g ai/ha
Method in brief: as §1

kochia [5] = assay: Test C preemergence; type: in vivo, Bassia scoparia; conditions: 0 to 100 scale (0 no effect, 100 complete control); for Plant response rating, Kochia: Preemergence, 500 g ai/ha, visual rating after 10 days; for Kochia plant response rating: Test C, preemergence, 125 g ai/ha
Method in brief: as §1

oat, wild [6] = assay: Test C preemergence; type: in vivo, Avena fatua; conditions: 0 to 100 scale (0 no effect, 100 complete control); for Plant response rating, Oat, Wild: Preemergence, 500 g ai/ha, visual rating after 10 days; for Oat, Wild plant response rating: Test C, preemergence, 125 g ai/ha
Method in brief: as §1

pigweed, palmer [7] = assay: Test C preemergence; type: in vivo, Amaranthus palmeri; conditions: 0 to 100 scale (0 no effect, 100 complete control); for Plant response rating, Pigweed, Palmer: Preemergence, 500 g ai/ha, visual rating after 10 days; for Pigweed, Palmer plant response rating: Test C, preemergence, 125 g ai/ha
Method in brief: as §1

ragweed [8] = assay: Test C preemergence; type: in vivo, Ambrosia artemisiifolia; conditions: 0 to 100 scale (0 no effect, 100 complete control); for Plant response rating, Ragweed: Preemergence, 500 g ai/ha, visual rating after 10 days; for Ragweed plant response rating: Test C, preemergence, 125 g ai/ha
Method in brief: as §1

ryegrass, Italian [9] = assay: Test C preemergence; type: in vivo, Lolium multiflorum; conditions: 0 to 100 scale (0 no effect, 100 complete control); for Plant response rating, Ryegrass, Italian: Preemergence, 500 g ai/ha, visual rating after 10 days; for Ryegrass, Italian plant response rating: Test C, preemergence, 125 g ai/ha
Method in brief: as §1

soybean [10] = assay: Test C preemergence; type: in vivo, Glycine max; conditions: 0 to 100 scale (0 no effect, 100 complete control); for Plant response rating, Soybean: Preemergence, 500 g ai/ha, visual rating after 10 days; for Soybean plant response rating: Test C, preemergence, 125 g ai/ha
Method in brief: as §1

wheat [11] = assay: Test C preemergence; type: in vivo, Triticum aestivum; conditions: 0 to 100 scale (0 no effect, 100 complete control); for Plant response rating, Wheat: Preemergence, 500 g ai/ha, visual rating after 10 days; for Wheat plant response rating: Test C, preemergence, 125 g ai/ha
Method in brief: as §1

barnyardgrass [12] = assay: Test C postemergence; type: in vivo, Echinochloa crusgalli; conditions: 10 days
Method in brief: as §1

blackgrass [13] = assay: Test C postemergence; type: in vivo, Alopecurus myosuroides; conditions: 10 days
Method in brief: as §1

corn [14] = assay: Test C postemergence; type: in vivo, Zea mays; conditions: 10 days
Method in brief: as §1

green foxtail [15] = assay: Test C postemergence; type: in vivo, Setaria viridis; conditions: 10 days
Method in brief: as §1

kochia [16] = assay: Test C postemergence; type: in vivo, Bassia scoparia; conditions: 10 days
Method in brief: as §1

oat, wild [17] = assay: Test C postemergence; type: in vivo, Avena fatua; conditions: 10 days
Method in brief: as §1

pigweed, palmer [18] = assay: Test C postemergence; type: in vivo, Amaranthus palmeri; conditions: 10 days
Method in brief: as §1

ragweed [19] = assay: Test C postemergence; type: in vivo, Ambrosia artemisiifolia; conditions: 10 days
Method in brief: as §1

ryegrass, Italian [20] = assay: Test C postemergence; type: in vivo, Lolium multiflorum; conditions: 10 days
Method in brief: as §1

soybean [21] = assay: Test C postemergence; type: in vivo, Glycine max; conditions: 10 days
Method in brief: as §1

wheat [22] = assay: Test C postemergence; type: in vivo, Triticum aestivum; conditions: 10 days
Method in brief: as §1

galium = assay: Test C postemergence; type: in vivo, Galium aparine; conditions: 10 days
Method in brief: as §1

horseweed = assay: Test C postemergence; type: in vivo, Erigeron canadensis; conditions: 10 days
Method in brief: as §1

barnyardgrass [23] = assay: Test D flooded paddy test; type: in vivo, Echinochloa crus-galli; conditions: 250 g ai/ha, applied to paddy water, visual rating after 13 to 14 days, scale 0 to 100 (0 no effect, 100 complete control)
Method in brief: (§2)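 2-leaf plants; flood 3 cm above soil; compound dosed into paddy water; greenhouse 13–14 d; visual rating vs controls, 0–100 (100 = complete control); dash = not tested.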

ducksalad = assay: Test D flooded paddy test; type: in vivo, Heteranthera limosa; conditions: 250 g ai/ha, applied to paddy water, visual rating after 13 to 14 days, scale 0 to 100 (0 no effect, 100 complete control)
Method in brief: as §2

rice = assay: Test D flooded paddy test; type: in vivo, Oryza sativa; conditions: 250 g ai/ha, applied to paddy water, visual rating after 13 to 14 days, scale 0 to 100 (0 no effect, 100 complete control)
Method in brief: as §2

sedge, umbrella = assay: Test D flooded paddy test; type: in vivo, Cyperus difformis; conditions: 250 g ai/ha, applied to paddy water, visual rating after 13 to 14 days, scale 0 to 100 (0 no effect, 100 complete control)
Method in brief: as §2

[24] = 125 g ai/ha, postemergence, 0 to 100 scale, 0 no effect, 100 complete control
[25] = Postemergence, 500 g ai/ha, visual 0 to 100 scale (0 no effect, 100 complete control)

Cc1cccc2c1O[C@@H](C)CN2C(=O)c1cc(-n2cnc(C(C)C)n2)cc2occc12 [Compound 195]
Plant response rating, Barnyardgrass (barnyardgrass [1]): 100
Barnyardgrass plant response rating (barnyardgrass [1]): 90
Plant response rating, Blackgrass (blackgrass [2]): 40
Blackgrass plant response rating (blackgrass [2]): 30
Plant response rating, Corn (corn [3]): 0
Corn plant response rating (corn [3]): 0
Plant response rating, Foxtail, Green (green foxtail [4]): 100
Foxtail, Green plant response rating (green foxtail [4]): 100
Plant response rating, Kochia (kochia [5]): 100
Kochia plant response rating (kochia [5]): 70
Plant response rating, Oat, Wild (oat, wild [6]): 80
Oat, Wild plant response rating (oat, wild [6]): 20
Plant response rating, Pigweed, Palmer (pigweed, palmer [7]): 100
Pigweed, Palmer plant response rating (pigweed, palmer [7]): 100
Plant response rating, Ragweed (ragweed [8]): 100
Ragweed plant response rating (ragweed [8]): 60
Plant response rating, Ryegrass, Italian (ryegrass, Italian [9]): 100
Ryegrass, Italian plant response rating (ryegrass, Italian [9]): 80
Plant response rating, Soybean (soybean [10]): 100
Soybean plant response rating (soybean [10]): 70
Plant response rating, Wheat (wheat [11]): 80
Wheat plant response rating (wheat [11]): 0
Plant response rating, Barnyardgrass (barnyardgrass [12]; [24]): 30
Plant response rating, Barnyardgrass (barnyardgrass [12]; [25]): 60
Plant response rating, Blackgrass (blackgrass [13]; [24]): 50
Plant response rating, Blackgrass (blackgrass [13]; [25]): 90
Plant response rating, Corn (corn [14]; [24]): 50
Plant response rating, Corn (corn [14]; [25]): 80
Plant response rating, Foxtail, Green (green foxtail [15]; [24]): 50
Plant response rating, Foxtail, Green (green foxtail [15]; [25]): 90
Plant response rating, Kochia (kochia [16]; [24]): 90
Plant response rating, Kochia (kochia [16]; [25]): 100
Plant response rating, Oat, Wild (oat, wild [17]; [24]): 10
Plant response rating, Oat, Wild (oat, wild [17]; [25]): 90
Plant response rating, Pigweed, Palmer (pigweed, palmer [18]; [24]): 90
Plant response rating, Pigweed, Palmer (pigweed, palmer [18]; [25]): 100
Plant response rating, Ragweed (ragweed [19]; [24]): 70
Plant response rating, Ragweed (ragweed [19]; [25]): 70
Plant response rating, Ryegrass, Italian (ryegrass, Italian [20]; [24]): 40
Plant response rating, Ryegrass, Italian (ryegrass, Italian [20]; [25]): 80
Plant response rating, Soybean (soybean [21]; [24]): 100
Plant response rating, Soybean (soybean [21]; [25]): 100
Plant response rating, Wheat (wheat [22]; [24]): 20
Plant response rating, Wheat (wheat [22]; [25]): 50
Plant response rating, Galium (galium; [24]): 90
Plant response rating, Galium (galium; [25]): 100
Plant response rating, Horseweed (horseweed; [24]): 90
Plant response rating, Horseweed (horseweed; [25]): 70
Plant response rating, Barnyardgrass (Flood) (barnyardgrass [23]): 45
Plant response rating, Ducksalad (Flood) (ducksalad): 70
Plant response rating, Rice (Flood) (rice): 0
Plant response rating, Sedge, Umbrella (Flood) (sedge, umbrella): 98

CC(C)c1ncn(-c2ccc(S(=O)(=O)C(F)(F)F)c(C(=O)N3C[C@H](C)Oc4c(Cl)cccc43)c2)n1 [Compound 229]
Plant response rating, Barnyardgrass (barnyardgrass [1]): 0
Barnyardgrass plant response rating (barnyardgrass [1]): 0
Plant response rating, Blackgrass (blackgrass [2]): 0
Blackgrass plant response rating (blackgrass [2]): 0
Plant response rating, Corn (corn [3]): 0
Corn plant response rating (corn [3]): 0
Plant response rating, Foxtail, Green (green foxtail [4]): 0
Foxtail, Green plant response rating (green foxtail [4]): 0
Plant response rating, Kochia (kochia [5]): 0
Kochia plant response rating (kochia [5]): 0
Plant response rating, Oat, Wild (oat, wild [6]): 0
Oat, Wild plant response rating (oat, wild [6]): 0
Plant response rating, Pigweed, Palmer (pigweed, palmer [7]): 0
Pigweed, Palmer plant response rating (pigweed, palmer [7]): 0
Plant response rating, Ragweed (ragweed [8]): 0
Ragweed plant response rating (ragweed [8]): 0
Plant response rating, Ryegrass, Italian (ryegrass, Italian [9]): 10
Ryegrass, Italian plant response rating (ryegrass, Italian [9]): 0
Plant response rating, Soybean (soybean [10]): 0
Soybean plant response rating (soybean [10]): 0
Plant response rating, Wheat (wheat [11]): 0
Wheat plant response rating (wheat [11]): 0
Plant response rating, Barnyardgrass (barnyardgrass [12]; [24]): 0
Plant response rating, Barnyardgrass (barnyardgrass [12]; [25]): 0
Plant response rating, Blackgrass (blackgrass [13]; [24]): 0
Plant response rating, Blackgrass (blackgrass [13]; [25]): 0
Plant response rating, Corn (corn [14]; [24]): 0
Plant response rating, Corn (corn [14]; [25]): 0
Plant response rating, Foxtail, Green (green foxtail [15]; [24]): 0
Plant response rating, Foxtail, Green (green foxtail [15]; [25]): 0
Plant response rating, Kochia (kochia [16]; [24]): 0
Plant response rating, Kochia (kochia [16]; [25]): 0
Plant response rating, Oat, Wild (oat, wild [17]; [24]): 0
Plant response rating, Oat, Wild (oat, wild [17]; [25]): 0
Plant response rating, Pigweed, Palmer (pigweed, palmer [18]; [24]): 0
Plant response rating, Pigweed, Palmer (pigweed, palmer [18]; [25]): 0
Plant response rating, Ragweed (ragweed [19]; [24]): 0
Plant response rating, Ragweed (ragweed [19]; [25]): 0
Plant response rating, Ryegrass, Italian (ryegrass, Italian [20]; [24]): 0
Plant response rating, Soybean (soybean [21]; [24]): 40
Plant response rating, Soybean (soybean [21]; [25]): 40
Plant response rating, Wheat (wheat [22]; [24]): 0
Plant response rating, Wheat (wheat [22]; [25]): 0
Plant response rating, Galium (galium; [24]): 0
Plant response rating, Galium (galium; [25]): 0
Plant response rating, Horseweed (horseweed; [24]): 0
Plant response rating, Horseweed (horseweed; [25]): 0
Plant response rating, Barnyardgrass (Flood) (barnyardgrass [23]): 0
Plant response rating, Ducksalad (Flood) (ducksalad): 0
Plant response rating, Rice (Flood) (rice): 0
Plant response rating, Sedge, Umbrella (Flood) (sedge, umbrella): 0
